Data: patent publication US10294202B2, “Pyrrolidinones as herbicides” (FMC Corporation, priority 2013, dated 2019)

Key:
[1] = tested on: pigweed; assay: Test A pre-/postemergence herbicide test; format: in vivo, Amaranthus retroflexus; settings: for Plant response rating, Pigweed: 0 to 100 scale
How it was run: (§1)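 Planted in loam–sand blend; treated the same day preemergence by directed soil spray, while separately grown plants at one- to two-leaf stage got postemergence spray. Compared visually with untreated controls after approximately 10 days; 100 means complete control.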

[2] = tested on: sedge, umbrella; assay: Test B flooded paddy test; format: in vivo, Cyperus difformis; settings: Flood, scale of 0 to 100 where 0 is no effect and 100 is complete control
How it was run: (§2)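 Plants were grown to the 2-leaf stage, then pots were flooded to 3 cm above the soil and compound was applied directly into the paddy water, with that depth held throughout. After 13 to 15 days in a greenhouse, injury was rated visually against untreated controls on a 0 to 100 scale (100 = complete control).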

[3] = tested on: rice; assay: Test B flooded paddy test; format: in vivo, Oryza sativa; settings: Flood, scale of 0 to 100 where 0 is no effect and 100 is complete control
How it was run: as §2

[4] = tested on: giant foxtail; assay: Test A pre-/postemergence herbicide test; format: in vivo, Setaria faberii; settings: for Plant response rating, Foxtail, Giant: 0 to 100 scale
How it was run: as §1

[5] = tested on: ryegrass, Italian; assay: Test A pre-/postemergence herbicide test; format: in vivo, Lolium multiflorum; settings: for Plant response rating, Ryegrass, Italian: 0 to 100 scale
How it was run: as §1

[6] = tested on: barnyardgrass; assay: Test A pre-/postemergence herbicide test; format: in vivo, Echinochloa crus-galli
How it was run: as §1

[7] = tested on: blackgrass; assay: Test A postemergence herbicide test; format: in vivo, Alopecurus myosuroides
How it was run: (§3)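 Ratings compare treated with untreated plants roughly 10 days after a postemergence application made at the one- to two-leaf stage. Scoring uses 0–100, where 0 means no effect and 100 complete control.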

[8] = tested on: barnyardgrass; assay: Test B flooded paddy test; format: in vivo, Echinochloa crus-galli; settings: Flood, scale of 0 to 100 where 0 is no effect and 100 is complete control
How it was run: as §2

[9] = tested on: galium; assay: Test A postemergence herbicide test; format: in vivo, Galium aparine; settings: for Plant response rating, Galium: 125 g ai/ha, 0 to 100 scale; for Galium plant response rating (0 to 100 scale, 0 is no effect, 100 is complete control): 500 g ai/ha
How it was run: as §3

[10] = tested on: ragweed; assay: Test A pre-/postemergence herbicide test; format: in vivo, Ambrosia elatior; settings: for Plant response rating, Ragweed: 0 to 100 scale
How it was run: as §1

[11] = tested on: kochia; assay: Test A pre-/postemergence herbicide test; format: in vivo, Kochia scoparia; settings: for Plant response rating, Kochia: 0 to 100 scale
How it was run: as §1

[12] = tested on: wheat; assay: Test A pre-/postemergence herbicide test; format: in vivo, Triticum aestivum; settings: Postemergence; for Plant response rating, Wheat: 125 g ai/ha, 0 to 100 scale; for Wheat plant response rating (0 to 100 scale, 0 is no effect, 100 is complete control): 500 g ai/ha
How it was run: as §1

[13] = tested on: ducksalad; assay: Test B flooded paddy test; format: in vivo, Heteranthera limosa; settings: Flood, scale of 0 to 100 where 0 is no effect and 100 is complete control
How it was run: as §2

[14] = tested on: corn; assay: Test A pre-/postemergence herbicide test; format: in vivo, Zea mays; settings: Postemergence
How it was run: as §1

[15] = 125 g ai/ha, visual rating, 0 no effect, 100 complete control, approximately 10 days, preemergence
[16] = Postemergence, 125 g ai/ha, 0 is no effect, 100 is complete control
[17] = preemergence, 500 g ai/ha, 0 is no effect and 100 is complete control
[18] = 125 g ai/ha, visual rating, 0 to 100 scale, 0 no effect, 100 complete control, approximately 10 days, preemergence
[19] = 125 g ai/ha, 0 to 100 scale, 0 is no effect, 100 is complete control
[20] = 0 is no effect, 100 is complete control
[21] = Postemergence, 125 g ai/ha, 0 no effect, 100 complete control
[22] = 125 g ai/ha, 0 to 100 scale, 0 no effect, 100 complete control
[23] = 500 g ai/ha, 0 to 100 scale (0 no effect, 100 complete control)
[24] = 0 no effect, 100 complete control

## O=C1NCC(c2ccc(-c3ccccc3F)cc2)C1C(=O)Nc1cccc(F)c1F (stereo not shown) [Compound 235]
[1]; [15]
  Plant response rating, Pigweed: 0
[1]; [16]
  Plant response rating, Pigweed: 0
[1]; Postemergence, 500 g ai/ha
  Pigweed plant response rating (0 to 100 scale, 0 is no effect, 100 is complete control): 50
[1]; [17]
  Plant response rating, Pigweed: 0
[2]; 250 g ai/ha
  Plant response rating, Sedge, Umbrella: 0
[2]; 1000 g ai/ha
  Plant response rating, Sedge, Umbrella: 0
[3]; 250 g ai/ha
  Plant response rating, Rice: 0
[3]; 1000 g ai/ha
  Plant response rating, Rice: 0
[4]; [15]
  Plant response rating, Foxtail, Giant: 40
[4]; [16]
  Plant response rating, Foxtail, Giant: 10
[4]; Postemergence, 500 g ai/ha
  Foxtail, Giant plant response rating (0 to 100 scale, 0 is no effect, 100 is complete control): 50
[4]; [17]
  Plant response rating, Foxtail, Giant: 80
[5]; [15]
  Plant response rating, Ryegrass, Italian: 0
[5]; [16]
  Plant response rating, Ryegrass, Italian: 0
[5]; Postemergence, 500 g ai/ha
  Ryegrass, Italian plant response rating (0 to 100 scale, 0 is no effect, 100 is complete control): 0
[5]; [17]
  Plant response rating, Ryegrass, Italian: 0
[6]; [18]
  Plant response rating, Barnyardgrass: 0
[6]; Postemergence, 125 g ai/ha, 0 to 100 scale, 0 is no effect, 100 is complete control
  Plant response rating, Barnyardgrass: 10
[6]; Postemergence, 500 g ai/ha
  Barnyardgrass plant response rating (0 to 100 scale, 0 is no effect, 100 is complete control): 20
[6]; preemergence, 500 g ai/ha, 0 to 100 scale, 0 is no effect and 100 is complete control
  Plant response rating, Barnyardgrass: 60
[7]; [19]
  Plant response rating, Blackgrass: 0
[7]; 500 g ai/ha
  Blackgrass plant response rating (0 to 100 scale, 0 is no effect, 100 is complete control): 20
[8]; 250 g ai/ha
  Plant response rating, Barnyardgrass: 0
[8]; 1000 g ai/ha
  Plant response rating, Barnyardgrass: 45
[9]; [20]
  Plant response rating, Galium: 50
[9]
  Galium plant response rating (0 to 100 scale, 0 is no effect, 100 is complete control): 70
[10]; [15]
  Plant response rating, Ragweed: 0
[10]; [16]
  Plant response rating, Ragweed: 0
[10]; Postemergence, 500 g ai/ha
  Ragweed plant response rating (0 to 100 scale, 0 is no effect, 100 is complete control): 0
[10]; [17]
  Plant response rating, Ragweed: 0
[11]; [15]
  Plant response rating, Kochia: 0
[11]; [16]
  Plant response rating, Kochia: 0
[11]; Postemergence, 500 g ai/ha
  Kochia plant response rating (0 to 100 scale, 0 is no effect, 100 is complete control): 20
[11]; [17]
  Plant response rating, Kochia: 0
[12]; [20]
  Plant response rating, Wheat: 0
[12]
  Wheat plant response rating (0 to 100 scale, 0 is no effect, 100 is complete control): 0
[13]; 250 g ai/ha
  Plant response rating, Ducksalad: 0
[13]; 1000 g ai/ha
  Plant response rating, Ducksalad: 50
[14]; [19]
  Plant response rating, Corn: 0
[14]; 500 g ai/ha
  Corn plant response rating (0 to 100 scale, 0 is no effect, 100 is complete control): 20

## O=C1NCC(c2cccc(OC(F)(F)C(F)F)c2)C1C(=O)Nc1ccc(F)cc1F (racemic) [Compound 122]
[1]; [15]
  Plant response rating, Pigweed: 50
[1]; [21]
  Plant response rating, Pigweed: 60
[1]; Postemergence, 500 g ai/ha
  Pigweed plant response rating (0 to 100 scale, 0 is no effect, 100 is complete control): 80
[1]; preemergence, 500 g ai/ha
  Plant response rating, Pigweed: 80
[2]; 500 g ai/ha
  Plant response rating, Sedge, Umbrella: 0
[3]; 500 g ai/ha
  Plant response rating, Rice: 15
[4]; [15]
  Plant response rating, Foxtail, Giant: 90
[4]; [21]
  Plant response rating, Foxtail, Giant: 80
[4]; Postemergence, 500 g ai/ha
  Foxtail, Giant plant response rating (0 to 100 scale, 0 is no effect, 100 is complete control): 80
[4]; preemergence, 500 g ai/ha
  Plant response rating, Foxtail, Giant: 90
[5]; [15]
  Plant response rating, Ryegrass, Italian: 0
[5]; [21]
  Plant response rating, Ryegrass, Italian: 0
[5]; Postemergence, 500 g ai/ha
  Ryegrass, Italian plant response rating (0 to 100 scale, 0 is no effect, 100 is complete control): 40
[5]; preemergence, 500 g ai/ha
  Plant response rating, Ryegrass, Italian: 0
[6]; [18]
  Plant response rating, Barnyardgrass: 80
[6]; Postemergence, 125 g ai/ha, 0 to 100 scale, 0 no effect, 100 complete control
  Plant response rating, Barnyardgrass: 70
[6]; Postemergence, 500 g ai/ha, 0 to 100 scale (0 no effect, 100 complete control)
  Plant response rating, Barnyardgrass: 80
[6]; preemergence, 500 g ai/ha, 0 to 100 scale (0 no effect, 100 complete control)
  Plant response rating, Barnyardgrass: 90
[7]; [22]
  Plant response rating, Blackgrass: 50
[7]; [23]
  Plant response rating, Blackgrass: 70
[8]; 500 g ai/ha
  Plant response rating, Barnyardgrass: 65
[9]; [24]
  Plant response rating, Galium: 70
[9]
  Galium plant response rating (0 to 100 scale, 0 is no effect, 100 is complete control): 80
[10]; [15]
  Plant response rating, Ragweed: 0
[10]; [21]
  Plant response rating, Ragweed: 30
[10]; Postemergence, 500 g ai/ha
  Ragweed plant response rating (0 to 100 scale, 0 is no effect, 100 is complete control): 70
[10]; preemergence, 500 g ai/ha
  Plant response rating, Ragweed: 60
[11]; [15]
  Plant response rating, Kochia: 60
[11]; [21]
  Plant response rating, Kochia: 70
[11]; Postemergence, 500 g ai/ha
  Kochia plant response rating (0 to 100 scale, 0 is no effect, 100 is complete control): 70
[11]; preemergence, 500 g ai/ha
  Plant response rating, Kochia: 70
[12]; [24]
  Plant response rating, Wheat: 50
[12]
  Wheat plant response rating (0 to 100 scale, 0 is no effect, 100 is complete control): 60
[13]; 500 g ai/ha
  Plant response rating, Ducksalad: 100
[14]; [22]
  Plant response rating, Corn: 40
[14]; [23]
  Plant response rating, Corn: 60
